Test results: the supplement of paper PMC10307832

Assays:
Assay in all cases: relative viability (nuclei count vs DMSO), 5 days (fraction); higher = more cells survive
PC-3 [JPC-3] = system: PC-3 [JPC-3]
Procedure, shortened: (§1)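 Values are medians from duplicate plates. Each reflects relative viability, defined as the nuclei count of treated wells over that of vehicle wells. Lung cancer cell lines in 1536-well plates were pin-tool dosed one day after seeding with one drug alone or with a fixed anchor-drug dose plus five library-drug doses (not always all listed) in √10 steps, then fixed, stained and imaged at 4× after 5 days.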

NCI-H650 = system: NCI-H650
Procedure, shortened: as §1

A-427 = system: A-427
Procedure, shortened: as §1

PC-14 = system: PC-14
Procedure, shortened: as §1

NCI-H727 = system: NCI-H727
Procedure, shortened: as §1

NCI-H460 = system: NCI-H460
Procedure, shortened: as §1

NCI-H1793 = system: NCI-H1793
Procedure, shortened: as §1

H3255 = system: H3255
Procedure, shortened: as §1

COR-L23 = system: COR-L23
Procedure, shortened: as §1

SW 1573 = system: SW 1573
Procedure, shortened: as §1

NCI-H1563 = system: NCI-H1563
Procedure, shortened: as §1

NCI-H23 = system: NCI-H23
Procedure, shortened: as §1

NCI-H838 = system: NCI-H838
Procedure, shortened: as §1

LK-2 = system: LK-2
Procedure, shortened: as §1

SW 900 = system: SW 900
Procedure, shortened: as §1

LCLC-103H = system: LCLC-103H
Procedure, shortened: as §1

HCC-44 = system: HCC-44
Procedure, shortened: as §1

201T = system: 201T
Procedure, shortened: as §1

NCI-H1944 = system: NCI-H1944
Procedure, shortened: as §1

LU99A = system: LU99A
Procedure, shortened: as §1

NCI-H2347 = system: NCI-H2347
Procedure, shortened: as §1

LCLC-97TM1 = system: LCLC-97TM1
Procedure, shortened: as §1

NCI-H1650 = system: NCI-H1650
Procedure, shortened: as §1

Oc1nc(-c2ccc(C(F)(F)F)cc2)nc2c1CSCC2 [XAV939] + N=C(N)NC(=N)NCCc1ccccc1 [Phenformin] (partner 250 µM)
relative viability (PC-3 [JPC-3]; first compound 0.08 µM): 0.441 | relative viability (PC-3 [JPC-3]; first compound 0.253 µM): 0.466 | relative viability (PC-3 [JPC-3]; first compound 0.8 µM): 0.474 | relative viability (PC-3 [JPC-3]; first compound 2.53 µM): 0.441 | relative viability (NCI-H650; first compound 0.08 µM): 0.474 | relative viability (NCI-H650; first compound 0.253 µM): 0.494 | relative viability (NCI-H650; first compound 0.8 µM): 0.439 | relative viability (NCI-H650; first compound 2.53 µM): 0.414 | relative viability (A-427; first compound 0.08 µM): 0.365 | relative viability (A-427; first compound 0.253 µM): 0.328 | relative viability (A-427; first compound 0.8 µM): 0.314 | relative viability (A-427; first compound 2.53 µM): 0.294 | relative viability (PC-14; first compound 0.08 µM): 0.69 | relative viability (PC-14; first compound 0.253 µM): 0.592 | relative viability (PC-14; first compound 0.8 µM): 0.629 | relative viability (PC-14; first compound 2.53 µM): 0.555 | relative viability (NCI-H727; first compound 0.08 µM): 0.732 | relative viability (NCI-H727; first compound 0.253 µM): 0.353 | relative viability (NCI-H727; first compound 0.8 µM): 0.635 | relative viability (NCI-H727; first compound 2.53 µM): 0.542 | relative viability (NCI-H460; first compound 0.08 µM): 0.526 | relative viability (NCI-H460; first compound 0.253 µM): 0.408 | relative viability (NCI-H460; first compound 0.8 µM): 0.53 | relative viability (NCI-H460; first compound 2.53 µM): 0.502 | relative viability (NCI-H1793; first compound 0.08 µM): 0.495 | relative viability (NCI-H1793; first compound 0.253 µM): 0.389 | relative viability (NCI-H1793; first compound 0.8 µM): 0.302 | relative viability (NCI-H1793; first compound 2.53 µM): 0.354 | relative viability (H3255; first compound 0.08 µM): 0.415 | relative viability (H3255; first compound 0.253 µM): 0.397 | relative viability (H3255; first compound 0.8 µM): 0.381 | relative viability (H3255; first compound 2.53 µM): 0.375 | relative viability (COR-L23; first compound 0.08 µM): 0.438 | relative viability (COR-L23; first compound 0.253 µM): 0.44 | relative viability (COR-L23; first compound 0.8 µM): 0.466 | relative viability (COR-L23; first compound 2.53 µM): 0.405 | relative viability (SW 1573; first compound 0.08 µM): 0.483 | relative viability (SW 1573; first compound 0.253 µM): 0.398 | relative viability (SW 1573; first compound 0.8 µM): 0.369 | relative viability (SW 1573; first compound 2.53 µM): 0.37 | relative viability (NCI-H1563; first compound 0.08 µM): 0.616 | relative viability (NCI-H1563; first compound 0.253 µM): 0.681 | relative viability (NCI-H1563; first compound 0.8 µM): 0.594 | relative viability (NCI-H1563; first compound 2.53 µM): 0.636 | relative viability (NCI-H23; first compound 0.08 µM): 0.892 | relative viability (NCI-H23; first compound 0.253 µM): 0.722 | relative viability (NCI-H23; first compound 0.8 µM): 0.613 | relative viability (NCI-H23; first compound 2.53 µM): 0.806 | relative viability (NCI-H838; first compound 0.08 µM): 0.649 | relative viability (NCI-H838; first compound 0.253 µM): 0.557 | relative viability (NCI-H838; first compound 0.8 µM): 0.521 | relative viability (NCI-H838; first compound 2.53 µM): 0.395 | relative viability (LK-2; first compound 0.08 µM): 0.458 | relative viability (LK-2; first compound 0.253 µM): 0.527 | relative viability (LK-2; first compound 0.8 µM): 0.484 | relative viability (LK-2; first compound 2.53 µM): 0.369 | relative viability (SW 900; first compound 0.08 µM): 0.657 | relative viability (SW 900; first compound 0.253 µM): 0.49 | relative viability (SW 900; first compound 0.8 µM): 0.537 | relative viability (SW 900; first compound 2.53 µM): 0.419 | relative viability (LCLC-103H; first compound 0.08 µM): 0.369 | relative viability (LCLC-103H; first compound 0.253 µM): 0.29 | relative viability (LCLC-103H; first compound 0.8 µM): 0.304 | relative viability (LCLC-103H; first compound 2.53 µM): 0.315 | relative viability (HCC-44; first compound 0.08 µM): 0.239 | relative viability (HCC-44; first compound 0.253 µM): 0.219 | relative viability (HCC-44; first compound 0.8 µM): 0.221 | relative viability (HCC-44; first compound 2.53 µM): 0.259 | relative viability (201T; first compound 0.08 µM): 0.475 | relative viability (201T; first compound 0.253 µM): 0.421 | relative viability (201T; first compound 0.8 µM): 0.364 | relative viability (201T; first compound 2.53 µM): 0.421 | relative viability (NCI-H1944; first compound 0.08 µM): 0.233 | relative viability (NCI-H1944; first compound 0.253 µM): 0.198 | relative viability (NCI-H1944; first compound 0.8 µM): 0.199 | relative viability (NCI-H1944; first compound 2.53 µM): 0.17 | relative viability (LU99A; first compound 0.08 µM): 0.956 | relative viability (LU99A; first compound 0.253 µM): 0.863 | relative viability (LU99A; first compound 0.8 µM): 0.807 | relative viability (LU99A; first compound 2.53 µM): 0.853 | relative viability (NCI-H2347; first compound 0.08 µM): 0.396 | relative viability (NCI-H2347; first compound 2.53 µM): 0.338 | relative viability (LCLC-97TM1; first compound 0.08 µM): 0.474 | relative viability (LCLC-97TM1; first compound 0.253 µM): 0.352 | relative viability (LCLC-97TM1; first compound 0.8 µM): 0.434 | relative viability (LCLC-97TM1; first compound 2.53 µM): 0.373 | relative viability (NCI-H1650; first compound 0.08 µM): 0.499 | relative viability (NCI-H1650; first compound 0.253 µM): 0.456 | relative viability (NCI-H1650; first compound 0.8 µM): 0.373 | relative viability (NCI-H1650; first compound 2.53 µM): 0.348
